Data as given in patent US10973880B2, “Compositions and methods for treating pulmonary hypertension” (Acceleron Pharma Inc., priority 2016, dated 2021).

Tests used:
[1] = system: rat model of pulmonary arterial hypertension (PAH), monocrotaline (MCT) induced; experiment: monocrotaline rat model of pulmonary arterial hypertension; format: in vivo, Sprague Dawley rats
Procedure: The effects of an ActRIIA-mFc fusion protein (ActRIIA-mFc homodimer as described in Example 1), an ALK4-Fc-ActRIIB-Fc heterodimer (as described in Examples 12 and 13), and sildenafil (a phosphodiesterase-5 inhibitor approved for the treatment of PAH) were examined in a rat model of pulmonary arterial hypertension (PAH). In this model, Sprague Dawley rats received a […] injection of monocrotaline (MCT) to induce PAH 24 hours prior to start of therapy.
Rats were separated into different treatment groups (10 mice per group): 1) treatment with MCT (60 mg/kg administered i.p. as a single dose at day 1 of study) and Tris buffered saline (i.p. as 1 ml/kg, every three days) (vehicle treatment group), 2) treatment with an ActRIIA-mFc polypeptide (10 mg/kg administered i.p. every three days) and MCT (60 mg/kg administered i.p. as a single dose at day 1 of study), 3) treatment with an ALK4-Fc:ActRIIB-Fc heterodimer (10 mg/kg administered i.p. every three days) and MCT (60 mg/kg administered i.p. as a single dose at day 1 of study), 4) treatment with sildenafil (30 mg/kg administered orally twice daily) and MCT (60 mg/kg administered i.p. as a single dose at day 1 of study), and 5) control rats (Tris buffered saline administered i.p. as 1 ml/kg, every three days). Rats were treated for 28 days. Body weights were recorded prior to first dose on Day 1 and then weekly throughout the study.
On day 28, rats were anesthetized by an intraperitoneal injection of ketamine/xylazine (80/10 mg/kg). An incision was made in the neck, and a jugular vein was isolated and ligated anteriorly. A fluid-filled pressure catheter was introduced into the right jugular vein to measure pulmonary artery pressure (PAP). Another incision was made in the inguinal region, and femoral artery was isolated and ligated anteriorly. A Millar pressure catheter was introduced into a femoral artery to measure systolic arterial pressure, diastolic pressure, and heart rate. Mean arterial pressure and right PAP were monitored using the Notocord HEM (Croissy sur Seine, Frnace) v3.5 data capture system for approximately 5-10 minutes until stable measurements were obtained. During the measurements, rats were maintained at approximately 37° C. on a heating pad and body temperature was monitored throughout the procedure with a rectal temperature probe. At the conclusion of the procedure, rats were euthanized, and the hearts and lungs were removed. The entire heart was weighed. Next, the atria were removed and the left ventricle with septum (LV+S) was separated from the right ventricle (RV). The ventricles were weighed separately. Hypertrophy was assessed, in part, by calculating RV/LV+S. The lungs were also weighed.
Similar trends were observed on vessel muscularity based on histopathologic scoring. After staining tissue samples to detect αSMA/elastin, 100 pulmonary arterioles, between 10 μm and 50 μm in size, per animal were categorized as non-muscularized, partially muscularized, or completely muscularized. Pulmonary arterioles from vehicle treated rats were determined to be 62.3% completely muscularized, 36.4% partially muscularized, and 1.4% non-muscularized. […] Histopathological scoring of smooth muscle hypertrophy of pulmonary arterioles were also recorded as follows: 0 (normal), 1 (minimal), 2 (mild), 3 (moderate), or 4 (marked).

[2] = system: Sugen Hypoxia model of PAH (semaxanib/hypoxia); experiment: Sugen Hypoxia rat model of PAH; format: in vivo; details: 0 normal, 1 minimal, 2 mild, 3 moderate, 4 marked
Procedure: The effects of an ActRIIA-mFc fusion protein (ActRIIA-mFc homodimer as described in Example 1 and sildenafil (a phosphodiesterase-5 inhibitor approved for the treatment of PAH) were further examined the Sugen Hypoxia model of PAH. In this model, rats receive daily doses of semaxanib and are placed in a low oxygen environment (approximately 13% oxygen) to induce PAH 24 hours prior to start of therapy.
Rats were separated into different treatment groups (10 mice per group): 1) treatment with semaxanib (200 mg/kg administered s.c. as a single dose daily)/hypoxia and Tris buffered saline (administered i.p. as 1 ml/kg, every three days) (vehicle treatment group), 2) treatment with an ActRIIA-mFc polypeptide (10 mg/kg administered i.p. every three days) and semaxanib (200 mg/kg administered s.c. as a single dose daily)/hypoxia, 3) treatment with sildenafil (30 mg/kg administered orally twice daily) and semaxanib (200 mg/kg administered s.c. as a single dose daily)/hypoxia, and 4) control rats (Tris buffered saline administered i.p. as 1 ml/kg, every three days). Rats were treated for 28 days. Body weights were recorded prior to first dose on Day 1 and then weekly throughout the study.
On day 28, rats were anesthetized by an intraperitoneal injection of ketamine/xylazine (80/10 mg/kg). […] Hypertrophy was assessed, in part, by calculating RV/LV+S. The lungs were also weighed. […]

ActRIIA-mFc: extracellular domain of human ActRIIa fused to a mouse Fc domain with a minimal linker; homodimer
smooth muscle hypertrophy of pulmonary arterioles, average histopathological score ([1]; 0 normal, 1 minimal, 2 mild, 3 moderate, 4 marked): 1.6 score | improvement in body weight ([1]; 28 days, compared to monocrotaline treated rats, proteins 10 mg/kg i.p. every three days, sildenafil 30 mg/kg orally twice daily): did not show improvement | smooth muscle hypertrophy of pulmonary arterioles, average histopathological score [2]: 1.4 score
